Assay results: patent US11174267B2, “Spiroindolinones and therapeutic uses thereof” (The Regents of the University of California, priority 2015, dated 2021)
Where two headings read alike, the source gives them in different places.

How the values were obtained:
[1] = system: resistant clinical isolates of C. albicans; set-up: unit not given beside the values; details: cited from earlier work
[2] = system: resistant clinical isolates of C. albicans; assay: Screen of resistant clinical isolates, single dose, broth microdilution (growth OD600); type: cell-based, Candida albicans; details: fluconazole 64 μg/mL alone, 16 h in SC at 30° C.
Excerpt: (Flowers, S. A., et al. Eukaryotic Cell 2012, 11, 1289-1299.) The strains grow at dramatically different rates.

[3] = system: C. albicans strain HLY4123 and clinical isolates 26 and 45; assay: Checkerboard assay (MIC90, FIC index); type: cell-based, Candida albicans; details: Candida albicans
Procedure: Checkerboard assays were carried out using four 24-well plates. The results on each plate were normalized by duplication of one row and one column with a row and column on another plate. C. albicans was grown in SC medium overnight and then diluted to an effective OD600 of 0.0625. Serial ten-fold dilutions of the test compounds (150 mM) were prepared in DMSO in 1.5 mL Eppendorf tubes. […] Concentrations of compound in rows 1-11 varied from 300 μM to 0.0003 nM; the last row 12 contained no compound. […] The plates were incubated in a rotary shaker/incubator at 30° C. for 16 h. The contents of each well was resuspended with a micropipettor and a 20 μL aliquot was added to a polystyrene cuvette and diluted with 680 μL of deionized water. The suspension was triturated again immediately before measuring the absorbance at 600 nm. The MIC90 values were determined as the lowest concentrations of the drugs (alone or in combination) that inhibited fungal growth by 90% compared with that of the drug-free wells.
In all of the strains tested, the FIC index was below 0.5, fitting the classical definition of synergy.

[4] = target: C. albicans sterol α-demethylase (a.k.a. Erg11 or CYP51) (Candida albicans, UniProt P10613); assay: Literature: inhibition of sterol α-demethylase by fluconazole; type: biochemical; details: ten times the Ki, >90% inhibition expected
Chain of C. albicans sterol α-demethylase (a.k.a. Erg11 or CYP51) (P10613 whole entry): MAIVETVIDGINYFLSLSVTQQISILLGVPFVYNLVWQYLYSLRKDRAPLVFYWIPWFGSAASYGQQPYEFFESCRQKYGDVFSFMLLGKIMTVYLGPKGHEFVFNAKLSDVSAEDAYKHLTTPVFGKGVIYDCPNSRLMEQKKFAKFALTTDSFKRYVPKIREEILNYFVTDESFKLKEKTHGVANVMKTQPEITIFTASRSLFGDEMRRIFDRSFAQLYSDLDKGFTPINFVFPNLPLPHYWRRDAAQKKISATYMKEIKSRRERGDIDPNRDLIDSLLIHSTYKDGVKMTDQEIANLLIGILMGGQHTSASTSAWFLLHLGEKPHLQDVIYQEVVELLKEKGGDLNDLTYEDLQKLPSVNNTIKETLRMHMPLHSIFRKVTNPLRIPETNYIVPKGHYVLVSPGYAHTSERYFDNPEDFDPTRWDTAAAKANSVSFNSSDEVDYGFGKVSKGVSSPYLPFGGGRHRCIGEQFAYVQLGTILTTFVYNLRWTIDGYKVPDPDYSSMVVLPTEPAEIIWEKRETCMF

[5] = system: Candida glabrata; assay: EC50 in combination with fluconazole, Candida glabrata; type: cell-based; details: [fluconazole] = 128 μg/mL
Excerpt: (§1) Strains and growth condition. The wild-type Candida albicans strains used were SC5314 and CaSS1. Cdr1 heterozygous were from Merck Sharp & Dohme Corp. Double Barcoded (DBC) library of heterozygous Candida albicans mutants (version 2013A). Cdr1 deficient mutant was obtained by counterselection of the GRACE library strain on 5-Fluoroorotic Acid (5-FOA) containing plate. Clinical isolated resistant C. albicans were from Dr. David Rogers. Cryptococcus neoformans var. grubii H99 (ATCC 208821) and Candida glabrata BG2, a fluconazole-resistant clinical isolate, were used. Yeast strains were cultured at 30° C. in synthetic complete (SC) medium containing 2% glucose.
(§2) C. albicans was grown in SC medium overnight and then diluted to an effective OD600 of 0.0625. Serial ten-fold dilutions of the test compounds (0.15-1500 μM) were prepared in DMSO in 1.5 mL Eppendorf tubes. […] The plates were incubated in a rotary shaker/incubator at 30° C. for 16 h. The contents of each well was resuspended with a micropipettor and a 20 μL aliquot was added to a polystyrene cuvette and diluted with 680 μL of deionized water. The suspension was triturated again immediately before measuring the absorbance at 600 nm (OD600) for cell densities. EC50 values were determined by fitting to the Hill equation using the Excel-based tool ED50PLUS v1.0 (Mario H. Vargas) or using Mathematica. Similar procedures were used for Candida glabrata and Cryptococcus neoformans.
(§3) Because fungal drug-efflux ABC transporters are conserved, Cdr1 inhibitors that target the conserved regions of the pumps are expected to inhibit the drug efflux pumps in all fungi including C. albicans. […] Therefore, those spiroindolinones are candidates for combination antifungal therapy with azoles against invasive infections of not only C. albicans, but also other pathogenic fungi.

[6] = system: Cryptococcus neoformans; assay: EC50 in combination with fluconazole, Cryptococcus neoformans; type: cell-based; details: [fluconazole] = 4 μg/mL
Excerpt: as §1, §2, §3

[7] = system: NIH 3T3 cells; assay: Cytotoxicity, LDH assay; type: cell-based; details: concentrations up to 1.5 mM
Procedure: The cytotoxicity of spiroindoline Compounds 1, 8 and 25 were tested against NIH 3T3 cells at concentrations up to 1.5 mM (FIG. 13) using an LDH assay.

[8] = system: susceptible strain (HLY4123) of C. albicans; assay: Dose-response with fluconazole (0.25 μg/mL) against susceptible strain; type: cell-based, Candida albicans
Procedure: as §2

[9] = system: Resistant Candida albicans (clinical isolate-45); assay: EC50 in combination with fluconazole, resistant C. albicans; type: cell-based; details: C. albicans clinical isolate-45; [fluconazole] = 64 μg/mL; read-out: EC50 Resistant Candida albicans
[10] = in the presence of fluconazole; cited from earlier work
[11] = Candida albicans, with fluconazole 0.25 μg/mL, strain HLY4123
[12] = with fluconazole 0.25 μg/mL, strain HLY4123

In the case of OC(Cn1cncn1)(Cn1cncn1)c1ccc(F)cc1F [fluconazole, reference compound], the MICFlc ([1]; clinical isolate 15) is listed as 16, the MICFlc ([1]; clinical isolate 16) is listed as 16 and the MICFlc ([1]; clinical isolate 17) is listed as 32. For the same compound, the MICFlc ([1]; clinical isolate 21) was 32, the MICFlc ([1]; clinical isolate 22) was 32 and the MICFlc ([1]; clinical isolate 23) was 32. The MICFlc ([1]; clinical isolate 25) was 32, the MICFlc ([1]; clinical isolate 26) was 32 and the MICFlc ([1]; clinical isolate 30) was 64. For the same compound, the MICFlc ([1]; clinical isolate 33) was 64, the MICFlc ([1]; clinical isolate 36) was 64 and the MICFlc ([1]; clinical isolate 41) was 128. For the same compound, the MICFlc ([1]; clinical isolate 45) was 128, the “Growth (OD600) +Fluc” value ([2]; clinical isolate 15) was 5.58 and the “Growth (OD600) +Fluc” value ([2]; clinical isolate 16) was 0.64. The “Growth (OD600) +Fluc” value ([2]; clinical isolate 17) was 3.96, the “Growth (OD600) +Fluc” value ([2]; clinical isolate 21) was 6.46 and the “Growth (OD600) +Fluc” value ([2]; clinical isolate 22) was 3.27. The “Growth (OD600) +Fluc” value ([2]; clinical isolate 23) was 6.77, the “Growth (OD600) +Fluc” value ([2]; clinical isolate 25) was 2.90 and the “Growth (OD600) +Fluc” value ([2]; clinical isolate 26) was 6.44. The “Growth (OD600) +Fluc” value ([2]; clinical isolate 30) was 9.40, the “Growth (OD600) +Fluc” value ([2]; clinical isolate 33) was 7.38 and the “Growth (OD600) +Fluc” value ([2]; clinical isolate 36) was 5.08. The “Growth (OD600) +Fluc” value ([2]; clinical isolate 41) was 9.47, the “Growth (OD600) +Fluc” value ([2]; clinical isolate 45) was 9.17 and the “Growth (OD600) +Fluc” value ([2]; clinical isolate 49) was 11.31. The MIC90 ([3]; clinical isolate 26, fluconazole alone, read-out: MICFlc (MIC90)) was 836 µM, the MIC90 ([3]; clinical isolate 26, with Compound 25, read-out: MICFlc (+cpd) (MIC90)) was 105 µM and the MIC90 ([3]; clinical isolate 45, fluconazole alone, read-out: MICFlc (MIC90)) was 836 µM. The MIC90 ([3]; clinical isolate 45, with Compound 25, read-out: MICFlc (+cpd) (MIC90)) was 105 µM, the MIC90 ([3]; read-out: MIC90 for fluconazole, susceptible strain, Compound 25 present at 300 nM) was 0.125 µM and the MIC90 ([3]; strain HLY4123, fluconazole alone, read-out: MICFlc (MIC90)) was 0.5 µM. The MIC90 ([3]; strain HLY4123, with Compound 25, read-out: MICFlc (+cpd) (MIC90)) was 0.125 µM and the “theoretical limit for fluconazole potency” value [4] was “around 0.3 μM”.

With Cc1c(Cl)ccc2c1NC(=O)[C@]21N[C@H](Cc2ccccc2)[C@@H]2C(=O)N(c3ccccc3)C(=O)[C@@H]21 (racemic) [Compound 8] the EC50 [5] was 1720 nM, the EC50 [6] was 11300 nM and the cytotoxicity [7] was “weak to negligible cytotoxicity”. The EC50 [8, 11] was 1 nM and the EC50 [9] was 490 nM.

In the case of Cc1c(Cl)ccc2c1NC(=O)[C@@]21[C@H]2C(=O)N(c3ccccc3)C(=O)[C@H]2[C@H]2CNCCN21 [Compound 20], the “activity (in words)” value [8, 12] is reported as “low activity”.

In the case of CN[C@H]1CC[C@@H](c2ccc(Cl)c(Cl)c2)c2ccccc21 [sertraline], the MIC [10] is given as no less than 0.5 µg/mL.

For Cc1c(Cl)ccc2c1NC(=O)[C@@]21[C@H]2C(=O)N(c3ccccc3)C(=O)[C@H]2[C@H]2CN(C(=O)OC(C)(C)C)CCN21 (racemic) [Compound 9, (±)-tert-Butyl (3R,3a′R,3b'S,9a'S)-6-chloro-7-methyl-1′,2,3′-trioxo-2′-phenyl-2′,3′,3a′,3b′,4′,6′,7′,9a′-octahydrospiro[indoline-3,9′-pyrrolo[3′,4′:3,4]pyrrolo[1,2-a]pyrazine]-5′(1′H)-carboxylate], the EC50 [8, 11] was 5.6 nM, the “times more potent than compound 33” value ([8]; ratio of EC50s, diastereomers) was “over 35” and the EC50 [8, 12] was 6 to 8 nM.
